Test results: ChEMBL document CHEMBL1130793, “Peptide inhibitors of N-succinyl diaminopimelic acid aminotransferase (DAP-AT): a novel class of antimicrobial compounds” (Bioorg Med Chem Lett, 1998)

What was measured:
[1] = test system: Escherichia coli; assay: Regeneration time when tested against inhibition of N-Succinyl Diaminopimelic Acid Aminotransferase from Escherichia coli
[2] = test system: N-succinyldiaminopimelate aminotransferase (E. coli); assay: Compound was tested for inhibition of N-Succinyl Diaminopimelic Acid Aminotransferase from Escherichia coli.; conditions: concentration not given here
[3] = Pharmacokinetic parameter was determined; assay type: ADME
[4] = Ratio of the Kcat and Km app was determined; assay type: ADME
[5] = Michaelis-Menten constant was determined; assay type: ADME; conditions: read-out: Km app
[6] = Catalytic constant was determined; assay type: ADME
[7] = test system: N-succinyldiaminopimelate aminotransferase (E. coli); assay: Compound was tested for inhibition of N-Succinyl Diaminopimelic Acid Aminotransferase from Escherichia coli; conditions: concentration not given here
[8] = test system: N-succinyldiaminopimelate aminotransferase (E. coli); assay: Compound was tested for 50% inhibition of N-Succinyl Diaminopimelic Acid Aminotransferase (DAP-AT) from E. coli; overall rate of substrate consumption increases at 20 mM

T1/2 regen [1] | inhibition [2] | k cat [3] | k cat/Km [4] | Km [5] | SMILES | further results
2937 s | – | – | – | – | CC(=O)N[C@@H](CC(=O)O)C(=O)N[C@@H](CCCC(NN)C(=O)O)C(=O)O (stereo partly specified) | –
364 s | – | – | – | – | CC(=O)N[C@@H](Cc1ccccc1)C(=O)N[C@@H](CCCC(NN)C(=O)O)C(=O)O (stereo partly specified) | –
4716 s | – | – | – | – | NNC(CCC[C@H](NC(=O)CCC(=O)O)C(=O)O)C(=O)O (stereo partly specified) | –

Further lines, the molecule ahead of its results:

SMILES | T1/2 regen [1] | inhibition [2] | k cat [3] | k cat/Km [4] | Km [5] | further results
CC(=O)N[C@@H](Cc1ccccc1)C(=O)N[C@@H](CCCC(=O)C(=O)[O-])C(=O)[O-].[Li+].[Li+] | – | < 0.8% | < 2.1 s⁻¹ | < 2.1 mM⁻¹ s⁻¹ | < 1 mM | –
O=C(O)CCC(=O)N[C@@H](CCCC(=O)C(=O)O)C(=O)O | – | 100% | – | 273 mM⁻¹ s⁻¹ | 0.6 mM | k cat [6]: 164 s⁻¹
CC(=O)N[C@@H](CC(=O)[O-])C(=O)N[C@@H](CCCC(=O)C(=O)[O-])C(=O)[O-].[Li+].[Li+].[Li+] | – | – | 40 s⁻¹ | 25.4 mM⁻¹ s⁻¹ | 1.57 mM | inhibition [7]: 9.3%; IC50 [8]: overall rate of substrate consumption increases at 20 mM
